Our source for the GI50 and TGI values is PubChem BioAssay (NCI).

Test systems include CAKI-1 renal; COLO 205 colon; HCT-15 colon; LOX IMVI melanoma; M14 melanoma; MOLT-4 leukemia; RXF 393 renal; SF-268 CNS; SNB-19 CNS; SR leukemia.
Common to all, as to assay: DTP human tumour cell line panel, 48 h

Values joined by “and” are separate entries in the source; they are usually repeats but may differ in a detail not shown here. Identical values can stand only once.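 Tested at 5 concentrations; 48 h exposure; 96-well plates; endpoints linearly interpolated, else capped at highest concentration. At the GI50, growth is halved. The concentration for full growth arrest is given as TGI.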

By GI50 is commonly meant the concentration giving 50% growth inhibition. Broadly, the TGI is the concentration giving total growth inhibition. Low values mean greater sensitivity of the cells, high ones lower sensitivity of the cells. As for `CCCCCCN(C)Cc1ccc(OCCOc2ccc(CN(C)CCCCCC)cc2)cc1`, the GI50 is 1.35 µM in the experiment on CAKI-1 renal; 0.659 µM with COLO 205 colon; 0.984 µM in the experiment with HCT-15 colon; 1.35 µM with LOX IMVI melanoma; 0.448 µM in the experiment with M14 melanoma; 2.48 µM in the experiment on MOLT-4 leukemia. For the same compound, the GI50 was 0.834 µM in the experiment with RXF 393 renal, 2.59 µM with SF-268 CNS, 1.71 µM in the experiment on SNB-19 CNS and 1.04 µM in the experiment on SR leukemia. The TGI is 2.9 µM with CAKI-1 renal; 2.19 µM with COLO 205 colon; 2.83 µM with HCT-15 colon; 2.87 µM in the experiment with LOX IMVI melanoma; 1.83 µM in the experiment on M14 melanoma; 10.5 µM with MOLT-4 leukemia. For the same compound, the TGI in the experiment on RXF 393 renal amounted to 2.15 µM; in the experiment on SF-268 CNS it was 11.8 µM; with SNB-19 CNS, 3.87 µM; in the experiment on SR leukemia, 11.6 µM.
With `O=C(Nc1nc(-c2ccc(Cl)cc2)nc2c1sc(=S)n2-c1ccccc1)C(F)(F)F`, the GI50 in the experiment with CAKI-1 renal was 4 µM; in the experiment with COLO 205 colon, 3.54 µM; in the experiment with HCT-15 colon it was 6.46 µM; in the experiment with LOX IMVI melanoma it was 2.43 µM; in the experiment with M14 melanoma it was 7.61 µM; in the experiment on MOLT-4 leukemia it was above 100 µM. Also, the GI50 was 2.36 µM with RXF 393 renal, 4.45 µM in the experiment with SF-268 CNS, 7.18 µM in the experiment on SNB-19 CNS and 4.76 µM with SR leukemia. Further, the TGI with CAKI-1 renal is 16 µM; in the experiment on COLO 205 colon, 32.6 µM; with HCT-15 colon it was above 100 µM; with LOX IMVI melanoma, 6.46 µM; in the experiment with M14 melanoma, above 100 µM; in the experiment on MOLT-4 leukemia, above 100 µM. Also, the TGI with RXF 393 renal was 5.01 µM; in the experiment with SF-268 CNS, 24.3 µM; with SNB-19 CNS, 37.5 µM; in the experiment on SR leukemia, 20.1 µM.
On to `Nc1nc(N)c(N=Nc2ccc(C(=O)O)c(O)c2)c(N)n1`, for which the TGI in the experiment with CAKI-1 renal, in the experiment on COLO 205 colon, in the experiment with HCT-15 colon, in the experiment on LOX IMVI melanoma, in the experiment on M14 melanoma and in the experiment on MOLT-4 leukemia was above 100 µM in each case. The TGI in the experiment on RXF 393 renal, in the experiment on SF-268 CNS, in the experiment with SNB-19 CNS and with SR leukemia was above 100 µM in each case.
Consider `CCCCCCCCCCCCCC(=O)OCC1OC(n2cc(F)c(=O)[nH]c2=O)C(N)C(OC(=O)CCCCCCCCCCCCC)C1O` (stereo not drawn), for which the TGI in the experiment on CAKI-1 renal, in the experiment on COLO 205 colon, with HCT-15 colon, in the experiment with LOX IMVI melanoma, in the experiment on M14 melanoma and in the experiment with MOLT-4 leukemia was above 100 µM each time. The TGI in the experiment on RXF 393 renal, in the experiment with SF-268 CNS, in the experiment on SNB-19 CNS and in the experiment with SR leukemia was above 100 µM each time.
Regarding `OC1CCC[C@@H]1Sc1ccccc1` (stereo partly drawn), the TGI with CAKI-1 renal, with COLO 205 colon, with HCT-15 colon, with LOX IMVI melanoma, with M14 melanoma and with MOLT-4 leukemia was above 100 µM throughout. For the same compound, the TGI in the experiment on RXF 393 renal, in the experiment with SF-268 CNS, in the experiment on SNB-19 CNS and in the experiment on SR leukemia was above 100 µM each time.
On to `CC[C@@H](C)Nc1cc(C(=O)NC2CC3CCC(C2)N3c2ccc(C(=O)C3CC3)cn2)c(C)cc1C(N)=O` (stereo partly drawn), for which the GI50 in the experiment on CAKI-1 renal is 0.0597 µM; in the experiment with COLO 205 colon, 0.0182 µM; with HCT-15 colon, 0.0317 µM; in the experiment with LOX IMVI melanoma, 0.0301 µM; with M14 melanoma, 0.0489 µM; with MOLT-4 leukemia, 0.0374 µM. Moreover, the GI50 with RXF 393 renal was 0.0516 µM; with SF-268 CNS it was 0.357 µM; in the experiment on SNB-19 CNS it was 0.0604 µM; in the experiment with SR leukemia it was 0.0189 µM. Further, the TGI in the experiment on CAKI-1 renal is above 100 µM; with COLO 205 colon, 11.6 µM; with HCT-15 colon, above 100 µM; in the experiment with LOX IMVI melanoma, 0.102 µM; with M14 melanoma it was above 84 µM; in the experiment with MOLT-4 leukemia, 31 µM. The TGI is above 100 µM with RXF 393 renal, above 100 µM in the experiment on SF-268 CNS, above 100 µM with SNB-19 CNS and above 47.6 µM with SR leukemia.
For the compound `CC1CC(C)C2=NOS3=C2C1=NO3` (stereo not drawn), the TGI in the experiment with CAKI-1 renal, in the experiment with COLO 205 colon, in the experiment on HCT-15 colon, with LOX IMVI melanoma, in the experiment on M14 melanoma and in the experiment with MOLT-4 leukemia was above 100 µM throughout. Also, the TGI in the experiment on RXF 393 renal, in the experiment with SF-268 CNS, in the experiment with SNB-19 CNS and in the experiment on SR leukemia was above 100 µM in each case.
As to `NC(=Nc1nc(-c2ccccn2)cc2ccccc12)c1ccccn1`, the GI50 was 0.0422 µM with CAKI-1 renal; 0.00195 µM in the experiment on COLO 205 colon; 0.000503 µM in the experiment with HCT-15 colon; 0.158 µM in the experiment with LOX IMVI melanoma; 0.00816 µM with M14 melanoma; 0.00109 µM in the experiment with MOLT-4 leukemia. Further, the 50% growth inhibitory concentration (GI50) in the experiment with RXF 393 renal was 0.32 µM; with SF-268 CNS it was 0.111 µM; in the experiment with SR leukemia, 0.0619 µM and < 0.0145 µM. In addition, the TGI was above 11.9 µM with CAKI-1 renal; above 19.7 µM with HCT-15 colon; 0.677 µM and 1.23 µM in the experiment on LOX IMVI melanoma; 0.534 µM and 2.86 µM in the experiment on M14 melanoma; 0.0283 µM in the experiment with MOLT-4 leukemia; 0.795 µM in the experiment on RXF 393 renal. Also, the TGI was 12.1 µM in the experiment on SF-268 CNS; above 89.5 µM in the experiment on SNB-19 CNS; 0.243 µM and 0.722 µM in the experiment on SR leukemia.
As for `CC(=O)NC(CCCCN(Cc1ccccc1)C(=O)N(CCCl)N=O)C(=O)NCc1ccccc1` (stereo not drawn), the TGI is 97.7 µM in the experiment on CAKI-1 renal; 67.2 µM in the experiment on COLO 205 colon; above 100 µM with HCT-15 colon; above 58.1 µM with LOX IMVI melanoma; above 71.5 µM in the experiment on M14 melanoma; above 82.1 µM with MOLT-4 leukemia. Moreover, the TGI with RXF 393 renal was found to be 51.3 µM; in the experiment on SF-268 CNS it was 40.8 µM; in the experiment on SNB-19 CNS, 60.4 µM; in the experiment on SR leukemia it was 47.6 µM.
